Entries after “also recorded” stand apart in the source; their conditions may differ.
Columns and labels:
[1] = test system: human neutrophils; assay: Cell tracking assay (neutrophil locomotion); format: cell-based; settings: uniform concentration
Experimental: Neutrophils were obtained as described by Chettibi et al. [1993]. Briefly, whole blood was mixed with 1:10 v/v of 5% dextran and allowed to sediment at 37° C. for 1 hour. The leucocyte rich plasma was layered over Nycoprep 1.077 and centrifuged at 750 g for 15 minutes. Erythrocytes in the resulting pellet were removed by hypotonic lysis and neutrophils were washed twice with balanced salt solution (BSS). The cells were checked for viability by trypan blue exclusion (generally greater than 96% viable).
Automated cell-tracking migration chambers were made as previously described [Chettibi et al., 1993] and placed on the stage of an inverted phase-contrast microscope within a temperature controlled (37° C.) transparent box and locomotion observed by means of a video camera connected to a monochrome monitor and also to an Acorn A5000 computer with a Watford video digitiser programmed to capture and analyze one frame every 5 seconds. Data was obtained from a maximum of 80 selected cells and used to calculate instantaneous speed, the 2-dimensional diffusion coefficient and the locomotion persistence time, using the described procedure to eliminate the contribution of systematic drift [Chettibi et al., 1994].

[2] = test system: fMLP-induced chemotaxis of human neutrophils; assay: Chemotaxis assay (modified Boyden chamber); format: cell-based; settings: for chemotactic activity of the substance itself: Boyden chamber; for inhibition of chemotaxis to fMLP: substance in upper chamber, fMLP in lower chamber
Experimental: Filters (Sartorius membrane filter 3 μm pore) were cut and glued to a modified iml syringe barrel. 300 μl of 2×10^6/ml neutrophils were added to 300 μl antagonist and 200 μl of the suspension was added to the upper chamber (syringe barrel). The lower chamber (a 5 ml beaker), contained 3.6 ml of agonist. After 45 minutes, the cells were fixed in 70% ethanol for 5 minutes. This procedure also removes the filter from the syringe barrel by dissolving the glue. The filters were placed in a multi-well dish and treated as follows: distilled water for 2 minutes, Harris haematoxylin 1 minute, distilled water 1 min, Scotts Tap water (1:1 0.7% sodium bicarbonate:4% Magnesium sulphate (v/v) for 5 minutes, 70% ethanol 3 mins, 95% ethanol 3 minutes and 80%:20% ethanol:butanol (v/v) 5 minutes. The filters were cleared in xylene for 5 minutes, mounted in DEPEX and examined under bright field illumination with a 40× objective. Five randomly selected fields were counted for each filter.

[3] = test system: carrageenan-induced footpad swelling; assay: Carrageenan induced oedema test; format: in vivo, BALB/c mice; settings: for reduction of carrageenan-induced oedema: 800 ng doses
Experimental: Induction of Inflammatory Response to Carrageenin: Groups of mice were injected subcutaneously in one hind paw with 300 μg carrageenin mixed the thymosin β4, native or sulphoxide in a final volume of 50 μl. Control animals were injected with the same volume of saline. Footpad swelling was measured using a spring-dial calliper, and expressed as the difference in swelling between the carrageenin-injected paw and the uninjected, contralateral paw. The animals were injected intraperitoneally (i.p.) With the same dose of thymosin β4, native or sulphoxide and footpad measurements made at 6, 24, 48 and 72 hours.

[4] = test system: Human umbilical vein endothelial cells (HUVEC); assay: Scratch wound assay (endothelial sheet wound closure); format: cell-based
Experimental: Scratch wound assay: Human umbilical vein endothelial cells (HUVEC) were grown to confluency in multiwell dishes (Corning) and a scratch made across the diameter of each well with a sterile pipette tip. The resulting wound (approx. 1 mm) was then measured before the addition of Tβ4 or Tβ4so and at 45 min intervals.

[5] = test system: G-actin; settings: high salt conditions; cited from earlier work

In the case of “thymosin β4 (SDKPDMAEIEKFDKSKLKKTETQEKNPLPSKETIEQEKQAGES; UniProt P62328 2-44, looked up) [Tβ4, native, non-oxidised thymosin β4 prepared from human neutrophils by HPLC, reference compound]”, the “dispersive locomotion of neutrophils” value [1] was “did not give significant dispersive locomotion”, the “chemotactic activity of the substance itself” value [2] was “neither was chemotactic” and the “inhibition of chemotaxis to fMLP” value [2] was “both inhibited”. For the same substance, the “reduction of carrageenan-induced oedema” value [3] was “only the oxidised peptide significantly reduced”, the “suppression of footpad swelling” value ([3]; 1000 ng dose) was “ineffective” and the “wound healing (closure rate of scratch on endothelial monolayer)” value [4] was “promotes would healing”.

For oxidised thymosin β4 [Tβ4so], the “dispersive locomotion of neutrophils” value [1] was “dispersive at low concentrations”, the “chemotactic activity of the substance itself” value [2] was “neither was chemotactic” and the “potency of inhibition of chemotaxis relative to native Tβ4” value ([2]; oxidised versus native peptide) was “an order of magnitude more potent; also recorded: tenfold more inhibitory”. The “inhibition of chemotaxis to fMLP” value [2] was “both inhibited”, the “suppression of footpad swelling” value ([3]; 10 ng dose) was “ineffective” and the “suppression of footpad swelling” value ([3]; 100 ng dose) was “ineffective”. The “reduction of carrageenan-induced oedema” value [3] was “significantly reduced”, the “suppression of footpad swelling” value ([3]; administration 30 minutes prior to, during and 6 hours after carrageenan, evident after 6 h, sustained up to 24 hours) was “significant suppression of swelling” and the “concentration needed to inhibit actin polymerisation relative to thymosin β4” value [5] was 20 fold. The “wound healing (closure rate of scratch on endothelial monolayer)” value [4] was “promotes would healing” and the “potency in wound closure relative to native peptide” value ([4]; oxidised versus native peptide) was “at least an order of magnitude higher potency”.

Source: patent publication US6602519B1, “Oxidized thymosin β4” (The University Court of the University of Glasgow, priority 1998, dated 2003)
